Measurements as given in patent US20030171306A1, “Cancer treatment method” (priority 2002, published 2003).
Where a name gives a salt, the structure may show the parent alone.

What was measured:
[1] = tested on: multiple stage neutrophil progenitors; experiment: CD15 neutrophil antigen cell-based ELISA (CELISA); conditions: for CD15 signal from the cell cultures with increasing concentrations of the drug: anti-neoplastic drug on expanded CD34+ cells, 24 h
From the text: Three methods, more completely described in the following examples, were utilized for a determination of cell survival and ability to produce daughter cells of primary human neutrophil progenitors: (1) a FACS assay which determined the percent of live cells by size and granularity; (2) a colony forming assay which measured the number of CFU-GM progenitors (a specific early stage neutrophil progenitor); and (3) a cell-based ELISA which measured CD15 antigen the value of which was proportional to the number of neutrophil lineage cells. This assay allows evaluation of neutrophil progenitors (cells that can divide and produce daughter neutrophil-lineage cells) at multiple stages of differentiation.
Expanded CD34^+ stem cells were isolated as described in Example 2 and grown in complete growth media. The expanded CD34^+ cells were treated with DMSO or rolipram plus forskolin as previously described. […] After the treatment, the cells were counted, washed twice with 4 ml of HBSS supplemented with 2% FBS, and resuspended in complete growth media. The expression of CD15 antigen was used as a measure of the number of neutrophil lineage cells expanded from surviving progenitors of multiple stages of differentiation.
The cells were plated at a set number into 96-well plates in 100 μl volume per well of complete media. […] The plates were harvested at different time points by centrifuging at 450 G for 10 minutes at room temperature (RT) and the cells were washed several twice in HBSS by centrifugation of the plates. The cells were removed by suspension twice in HBSS with 5 mM EDTA with 100 μl per well and transfer of the total 200 μl volume to capture plates (Costar DNA-bind, #2498) that had been pretreated with 1% gluteraldehyde and stored (Warren et al., 1995 Stem Cells 13:167-174).
For CELISA, the preservative solution (PBS, 0.1% BSA, 0.1% azide) was removed from the capture plate and the wells were washed with 100 μl PBS. […] The plates were washed twice with 300 μl PBS/well and incubated with a secondary antibody (goat anti-mouse IgM-biotin, Sigma B-9265, 0.105 μg/well, 100 μl PBS with 5% goat sera) at RT for 60 min. After three to six 200 μl/well washes, strepavidin-horseradish peroxidase (Pierce 21126, 0.1 μg/well in a 1% solution of stable peroxide buffer, Pierce 34062) was added. The plates were incubated for ten minutes and washed three to six times with 200 μl/well. For the final detection step, the chemiluminescent reagent Supersignal® Ultra (Pierce 34075) prepared just prior to use by mixing equal parts of the luminol enhancer and the stable peroxide was added to the plates (100 μl per well) and gently mixed for five minutes at RT. The plates were read on a Wallace Victor II machine for one second for chemiluminescence at 425 nm.
The data from the Wallac Victor were transferred to Excel for analysis. Averages of replicate wells from treated cells were calculated along with standard error of the mean (sem) of the counts minus the background signal from replicate wells with media only (no cells).

[2] = tested on: specific early neutrophil progenitors (CFU-GMs); experiment: CFU-GM colony forming assay; format: cell-based, human; conditions: for number of CFU-GM colonies with increasing amounts of the drug: anti-neoplastic drug on expanded CD34+ cells, 24 h, colonies counted after 12 to 14 days
Method: Expanded CD34^+ cells, prepared according to the procedure of Example 2, were isolated and pretreated with DMSO or rolipram plus forskolin as described in Example 2. […] The cells were then plated in a semi solid growth medium for the growth of CFU-GMs following a published method with the exception that the G-CSF (10 ng/ml) was included in place of GM-CSF and erythropoietin (Dornsife, R E et al., Antimicrob Agents Chemother, 35: 322-328, (1991); Dornsife R E; Averett D R., Antimicrob Agents Chemother, 40(2): 514-519, (1996)). The CFU-GMs were counted after 12 to 14 days. The results are depicted in FIG. 3.

[3] = tested on: CCL64 mink lung epithelial cells; experiment: Protection of mink lung epithelial cells from paclitaxel, sulforhodamine B stain; format: cell-based; conditions: PDE4 inhibitor 1 μM plus forskolin 100 μM 24 h, then paclitaxel 10 nM 48 h
Method: CCL64 mink lung epithelial cells (ATCC #CCL-64) were grown in DMEM supplemented with 10% FBS and 1% penicillin-streptomycin and seeded into 96-well plates. After overnight incubation at 37° C. cells were treated with 100 μM forskolin in combination with each of the PDE4 inhibitors (1 μM). After 24 hours of treatment, paclitaxel was added to wells at various concentrations up to 10 nM. Time zero control plates were harvested by staining with Sulforhodamine B (Skehan P. et. al., (1990), J. Nat'l Cancer Inst 82:1107-12.) After an additional 48 hours of incubation at 37° C., the plates were harvested and stained with sulforhodamine B. The absorbance of the samples was read at the optical density of 562 nm. The no-drug controls were set to 100% and values were normalized to time zero control. As indicated in Example 8, cells were pre-treated with forskolin plus various PDE4 inhibitors (1 μM) and then challenged with paclitaxel at various concentrations. The sulforhodamine B signal from the cells was expressed as percent of control (no-drug, vehicle only). An increase in signal, indicating protection, ranged from 85% to 130% with the cells pre-treated with forskolin plus a particular PDE4 inhibitor and followed by a paclitaxel challenge at 10 nM.

[4] = tested on: human HT-29 colon tumor line; experiment: Tumor cell growth after chemoprotectant regimen and paclitaxel, sulforhodamine B; format: cell-based; conditions: forskolin 100 μM plus PDE4 inhibitor 1 μM, then paclitaxel 100 nM 24 h, versus DMSO
Method: (§1) The human tumor cell lines HT-29 (colon: ATCC #HTB 38), RKO (colon, ATCC #HTB 130), lines A549 (lung, ATCC #CCL 185), and MDA468 (breast, ATCC #HTB 132) were obtained from the American Type Culture Collection and maintained in DMEM containing 10% FBS. Tumor cells were grown at 37° C. in a humidified atmosphere of 5% CO2. Adherent tumor cells were seeded into 96 well plates and incubated for six hours to allow for attachment. After six hours the chemoprotectants forskolin (100 μM) plus rolipram (1 μM) or forskolin (100 μM) plus ariflo (1 μM) were added. After overnight incubation, paclitaxel (100 nM) was added for 24 hours. Cells were then washed free of chemoprotectants and paclitaxel, placed in fresh media, and grown for 5 days. Growth was measured daily using sulforhodamine B (Skehan P. et. al., (1990), J. Nat'l Cancer Inst 82:1107-12). The results are depicted in FIG. 8.

[5] = tested on: human RKO colon tumor line; experiment: as above; format: cell-based; conditions: forskolin 100 μM plus PDE4 inhibitor 1 μM, then paclitaxel 100 nM 24 h, versus DMSO
Method: as §1

[6] = tested on: human A549 lung tumor line; experiment: as above; format: cell-based; conditions: for effect of chemoprotectant regimen on paclitaxel inhibition of tumor cell growth: forskolin 100 μM plus PDE4 inhibitor 1 μM, then paclitaxel 100 nM 24 h
Method: as §1

[7] = tested on: expanded CD34+ stem cells; experiment: Flow cytometric (FACS) evaluation of surviving and apoptotic fractions of expanded CD34+ cells; format: cell-based, human
Method: A T-test analysis ([…], with application of either equal or unequal variance [difference in standard error of the mean (sem) < or >3-fold, respectively) was performed to compare between treatment groups to determine if statistically significant differences existed (MS Excel, SAS JMP).

normal progenitor cells = experiment: Cell based assays utilized herein, PDE4 inhibitor used alone; conditions: without forskolin

For CCC1=C[C@@H]2CN(C1)Cc1c([nH]c3ccccc13)[C@@](C(=O)OC)(c1cc3c(cc1OC)N(C)[C@H]1[C@@](O)(C(=O)OC)[C@H](OC(C)=O)[C@]4(CC)C=CCN5CC[C@]31[C@@H]54)C2 (relative stereo) [Vinorelbine, 3′,4′-didehydro-4′-deoxy-C′-norvincaleukoblastine [R-(R*,R*)-2,3-dihydroxybutanedioate (1:2)(salt)]], the “CD15 signal from the cell cultures with increasing concentrations of the drug” value [1] was “decreased”.

For O=c1[nH]cc(F)c(=O)[nH]1 [5-fluorouracil, 5-fluoro-2,4-(1-H,3H) pyrimidinedione], the “number of CFU-GM colonies with increasing amounts of the drug” value [2] was “decreased in a dose dependent manner” and the “CD15 signal from the cell cultures with increasing concentrations of the drug” value [1] was “decreased”.

In the case of COc1ccc([C@]2(C#N)CC[C@@H](C(=O)O)CC2)cc1OC1CCCC1 [Ariflo, cis-4-cyano-4-[3-(cyclopentyloxy)-4-methoxyphenyl]cyclohexane-1-carboxylic acid], the “Sulforhodamine B signal (survival) as percent of no-drug control” value [3] is reported as 110%, the “effect of chemoprotectant regimen on paclitaxel inhibition of tumor cell growth” value [4] is reported as “did not effect the inhibition of tumor cell growth” and the “effect of chemoprotectant regimen on paclitaxel inhibition of tumor cell growth” value [5] is reported as “did not effect the inhibition of tumor cell growth”. The “effect of chemoprotectant regimen on paclitaxel inhibition of tumor cell growth” value [6] was “no additional protection”.

COC(=O)c1cccc(-n2c(=O)n(Cc3ccccc3)c(=O)c3cccnc32)c1 [CP-77059] was tested, and the “Sulforhodamine B signal (survival) as percent of no-drug control” value [3] was 85%.

With CCCCn1c(=O)c2c(ncn2CC(C)=O)n(CCCC)c1=O [Denbufylline, 7-acetonyl,1,3dibutylxanthine] the “Sulforhodamine B signal (survival) as percent of no-drug control” value [3] was 95%.

COc1cc([C@@H]2c3cc4c(cc3[C@@H](O[C@@H]3O[C@@H]5CO[C@@H](C)O[C@H]5[C@H](O)[C@H]3O)[C@H]3COC(=O)[C@H]23)OCO4)cc(OC)c1O [Etoposide, 4′-demethyl-epipodophyllotoxin 9[4,6-0-(R)-ethylidene-β-D-glucopyranoside]] was tested, and the “number of CFU-GM colonies with increasing amounts of the drug” value [2] was “decreased in a dose dependent manner” and the “CD15 signal from the cell cultures with increasing concentrations of the drug” value [1] was “decreased”.

For COC(=O)N1C[C@@H](c2ccc(OC)c(OC3CCCC3)c2)[C@](C)(C(C)=O)C1 [GI193600X], the “Sulforhodamine B signal (survival) as percent of no-drug control” value [3] was 120%.

CCn1c(=O)c2ccccc2n(-c2cccc([N+](=O)[O-])c2)c1=O [Nitraquazone] was tested, and the “Sulforhodamine B signal (survival) as percent of no-drug control” value [3] was 115%.

In the case of CC(=O)O[C@H]1C(=O)[C@@]2(C)[C@H]([C@H](OC(=O)c3ccccc3)[C@]3(O)C[C@H](OC(=O)[C@H](O)[C@@H](NC(=O)c4ccccc4)c4ccccc4)C(C)=C1C3(C)C)[C@]1(OC(C)=O)CO[C@@H]1C[C@@H]2O [Paclitaxel, 5β,20-epoxy-1,2α,4,7β,10β,13α-hexa-hydroxytax-11-en-9-one 4,10-diacetate 2-benzoate 13-ester with (2R,3S)-N-benzoyl-3-phenylisoserine], the “number of CFU-GM colonies with increasing amounts of the drug” value [2] is reported as “did not exhibit a good dose response”, the surviving cell fraction ([7]; DMSO pretreatment only 24 h, then paclitaxel 30 nM 24 h) is reported as 45% and the surviving cell fraction ([7]; DMSO pretreatment only 24 h, then paclitaxel 100 nM 24 h) is reported as 27%. For the same compound, the surviving cell fraction ([7]; DMSO pretreatment only 24 h, then paclitaxel 300 nM 24 h) was 23%, the surviving cell fraction ([7]; DMSO pretreatment only 24 h, then paclitaxel 600 nM 24 h) was 18% and the “inhibition of tumor cell growth” value ([6]; paclitaxel 100 nM 24 h) was “not completely inhibited”. The “CD15 signal from the cell cultures with increasing concentrations of the drug” value [1] was “decreased”.

With COc1ccc(C(=O)Nc2c(Cl)cncc2Cl)cc1OC1CCCC1 [Piclamilast, N-(3,5-dichloropyrid-4-yl)-3-cyclopentyloxy-4-methoxybenzamide] the “Sulforhodamine B signal (survival) as percent of no-drug control” value [3] was 130%.

In the case of O=c1c2cccnc2n(-c2cccc([N+](=O)[O-])c2)c(=O)n1Cc1ccncc1 [RS-25344], the “Sulforhodamine B signal (survival) as percent of no-drug control” value [3] is reported as 105%.

COc1ccc(C2CNC(=O)C2)cc1OC1CCCC1 (stereo not shown) [Rolipram] was tested, and the “Sulforhodamine B signal (survival) as percent of no-drug control” value [3] was 110%, the “survival of CFU-GM progenitors” value ([2]; rolipram plus forskolin prior to 5-fluorouracil, etoposide or paclitaxel, versus DMSO) was “increased the survival of CFU-GM progenitors” and the “apoptotic fraction in paclitaxel treated cells compared with DMSO pretreatment” value ([7]; pretreatment with rolipram plus forskolin) was “significantly reduced the apoptotic fraction”. For the same compound, the surviving cell fraction ([7]; rolipram 1 μM plus forskolin 100 μM 24 h, then paclitaxel 30 nM 24 h) was 86%, the surviving cell fraction ([7]; rolipram 1 μM plus forskolin 100 μM 24 h, then paclitaxel 100 nM 24 h) was 81% and the surviving cell fraction ([7]; rolipram 1 μM plus forskolin 100 μM 24 h, then paclitaxel 300 nM 24 h) was 63%. For the same compound, the surviving cell fraction ([7]; rolipram 1 μM plus forskolin 100 μM 24 h, then paclitaxel 600 nM 24 h) was 59%, the “effect of chemoprotectant regimen on paclitaxel inhibition of tumor cell growth” value [4] was “did not effect the inhibition of tumor cell growth” and the “effect of chemoprotectant regimen on paclitaxel inhibition of tumor cell growth” value [5] was “did not effect the inhibition of tumor cell growth”. For the same compound, the “effect of chemoprotectant regimen on paclitaxel inhibition of tumor cell growth” value [6] was “no additional protection”, the “effect of pretreatment on toxicity towards neutrophil progenitors compared to DMSO” value (“effect of pretreatment … compared to DMSO” for short) ([1]; rolipram plus forskolin, then carboplatin) was “no significant difference” and the “effect of pretreatment … compared to DMSO” value ([1]; rolipram plus forskolin, then cisplatin) was “significantly increase the toxicity”. The “effect of pretreatment … compared to DMSO” value ([1]; rolipram plus forskolin, then doxorubicin) was “significantly increase the toxicity”, the “CD15 signal after pretreatment versus DMSO” value ([1]; rolipram plus forskolin, then paclitaxel, 5-FU, etoposide, vinblastine, vinorelbine, methotrexate or topotecan, 99% confidence) was “increased the CD15 signal antigen to a statistically significant level” and the protective effect (normal progenitor cells) was “little protective effect”.

CC[C@]1(O)C[C@@H]2CN(CCc3c([nH]c4ccccc34)[C@@](C(=O)OC)(c3cc4c(cc3OC)N(C)[C@H]3[C@@](O)(C(=O)OC)[C@H](OC(C)=O)[C@]5(CC)C=CCN6CC[C@]43[C@@H]65)C2)C1 [Vinblastine, vincaleukoblastine sulfate] was tested, and the “CD15 signal from the cell cultures with increasing concentrations of the drug” value [1] was “decreased”.

CN(Cc1cnc2nc(N)nc(N)c2n1)c1ccc(C(=O)N[C@@H](CCC(=O)O)C(=O)O)cc1 [methotrexate, N-[4[[(2,4-diamino-6-pteridinyl)methyl]methylamino]benzoyl]-L-glutamic acid] was tested, and the “CD15 signal from the cell cultures with increasing concentrations of the drug” value [1] was “decreased”.

With CC[C@@]1(O)C(=O)OCc2c1cc1n(c2=O)Cc2cc3c(CN(C)C)c(O)ccc3nc2-1 [topotecan, (S)-10-[(dimethylamino)methyl]-4-ethyl-4,9-dihydroxy-1H-pyrano[3′,4′,6,7]indolizino[1,2-b]quinoline-3,14(4H,12H)-dione monohydrochloride] the “CD15 signal from the cell cultures with increasing concentrations of the drug” value [1] was “decreased”.
